# Data reported in patent US9815836B2, “Macrocyclic compounds as IRAK1/4 inhibitors and uses thereof” (Merck Patent GmbH, priority 2015, dated 2017).
# pIC50: −log10 of the molar value. Like-named read-outs stand apart in the source and are kept apart here.
# Legend:
# IRAK1 = IRAK1 (Homo sapiens (Human), UniProt P51617); assay: IRAK1 enzymatic assay (ADP-Glo luminescence); assay type: biochemical
# Description: In this assay, IRAK1 hydrolyses ATP and autophosphorylates. Measurement of IRAK-1 inhibition is performed in 384-well format based on luminescence assay (ADP-Glo™ Kinase Assay from Promega). Purified human recombinant IRAK1 ([…]) and serial diluted compounds in DMSO (range of concentration from 10 μM to 0.5 nM) or controls (1% DMSO) are incubated for 15 minutes at RT in assay buffer containing 50 mM Hepes pH 7.0, Fatty acid-free BSA 0.1%, Dithiothreitol (DTT) 2 mM, MgCl2 10 mM, EGTA 0.5 mM, Triton X-100 0.01%. The kinase reaction is then initiated by the addition of ATP at a concentration of 1μM. After 2 hours of incubation at RT, the reaction is stopped and the unconsumed ATP depleted by the addition of ADP-Glo™ Reagent according to supplier instructions. After 40 minutes of incubation at RT, the Kinase Detection Reagent is then added to the assay plate according to supplier instructions. After 20 minutes of incubation at RT, the luminescence signal is measured with a luminometer (PerkinElmer Envision or equivalent reader).
# IRAK4 = IRAK4 (Homo sapiens (Human), UniProt Q9NWZ3); assay: IRAK4 enzymatic assay (ADP-Glo luminescence); assay type: biochemical; details: human purified recombinant His-TEV-IRAK4 (1-460), ATP 2 μM, STK1-biotin peptide 300 nM
# Sequence of IRAK4 (Q9NWZ3 whole entry): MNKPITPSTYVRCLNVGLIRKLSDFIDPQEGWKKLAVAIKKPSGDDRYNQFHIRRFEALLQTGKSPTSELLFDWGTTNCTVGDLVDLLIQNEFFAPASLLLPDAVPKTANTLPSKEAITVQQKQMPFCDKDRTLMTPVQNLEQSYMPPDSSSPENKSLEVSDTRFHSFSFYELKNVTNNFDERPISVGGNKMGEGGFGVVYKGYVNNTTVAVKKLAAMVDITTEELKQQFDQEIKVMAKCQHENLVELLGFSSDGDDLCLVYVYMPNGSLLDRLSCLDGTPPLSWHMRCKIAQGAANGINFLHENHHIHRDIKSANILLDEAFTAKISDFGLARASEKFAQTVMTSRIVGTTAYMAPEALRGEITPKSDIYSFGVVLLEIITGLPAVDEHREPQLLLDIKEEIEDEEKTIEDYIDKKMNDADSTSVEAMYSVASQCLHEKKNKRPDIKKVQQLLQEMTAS
# Description: IRAK4 is a human purified recombinant enzyme (His-TEV-IRAK4 (1-460)).
# In this assay, IRAK4 hydrolyses ATP, autophosphorylates and phosphorylates a Serine/Threonine generic peptidic substrate (STK: 61ST1BLC from CisBio International). Measurement of IRAK-4 inhibition is performed in 384-well format based on a luminescence assay (ADP-Glo™ Kinase Assay from Promega). Purified human recombinant IRAK4 (0.3 μg/ml) and serial diluted compounds in DMSO (range of concentration from 10 μM to 0.5 nM) or controls (1% DMSO) are incubated for 15 minutes at RT in assay buffer containing 50 mM Hepes pH 7.0, Fatty acid-free BSA 0.1%, Dithiothreitol (DTT) 2 mM, MgCl2 10 mM, EGTA 0.5 mM, Triton X-100 0.01%, MnCl2 5 mM. The kinase reaction is then initiated by the addition of ATP (2 μM) and the peptidic substrate STK1-biotin peptide (300 nM). After 2 hours of incubation at RT, the reaction is stopped and the unconsumed ATP depleted by the addition of ADP-Glo™ Reagent according to supplier instructions. After 40 minutes of incubation at RT, the Kinase Detection Reagent is then added to the assay plate according to supplier instructions. After 20 minutes of incubation at RT, the luminescence signal is measured with a plate-reading luminometer (PerkinElmer Envision or equivalent reader).
# [1] = human purified recombinant His-TEV-IRAK1 (194-712), ATP 1 μM, read-out: IRAK1 IC50
# Sequence of IRAK1 (P51617 194-712): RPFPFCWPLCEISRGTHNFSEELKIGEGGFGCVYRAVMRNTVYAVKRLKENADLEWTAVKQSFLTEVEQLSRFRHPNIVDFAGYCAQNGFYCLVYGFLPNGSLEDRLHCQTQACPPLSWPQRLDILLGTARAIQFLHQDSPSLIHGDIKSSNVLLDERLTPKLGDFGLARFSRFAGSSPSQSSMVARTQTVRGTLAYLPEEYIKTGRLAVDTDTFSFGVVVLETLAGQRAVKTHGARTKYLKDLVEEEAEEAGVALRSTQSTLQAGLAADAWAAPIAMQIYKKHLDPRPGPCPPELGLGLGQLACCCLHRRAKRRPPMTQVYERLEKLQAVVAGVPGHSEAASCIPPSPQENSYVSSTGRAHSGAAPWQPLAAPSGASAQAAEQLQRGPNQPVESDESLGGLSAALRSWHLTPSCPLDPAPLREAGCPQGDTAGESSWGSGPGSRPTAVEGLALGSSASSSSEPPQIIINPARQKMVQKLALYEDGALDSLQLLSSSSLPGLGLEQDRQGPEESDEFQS
pIC50 (IRAK1; [1]),Structure (SMILES),"ring closure, yield after HPLC (from NCCOCCn1cc(-c2cccc(C(=O)Nc3cn(C4CCOCC4)nc3C(=O)[O-])c2)cn1, amide bond, 17-membered ring, BOP/DIEA, DMF, 20.7 mM) [%]",pIC50 (IRAK4),pIC50 (IRAK1),"ring closure, yield after HPLC (the molecule shown is the open-chain precursor, multicomponent bond, 20-membered ring, Cs2CO3/KI, microwave, DMSO, 22.0 mM, 110.0 °C) [%]"
< 5.30,"O=C1Nc2cn(C3CCOCC3)nc2C(=O)NCCOCCn2cc(cn2)-c2cccc1c2 [Compound 20, 15-(oxan-4-yl)-8-oxa-4,5,11,14,15,18-hexaazatetracyclo[18.3.1.1^2,^5.0^13,^1^7]pentacosa-1(23),2(25),3,13,16,20(24),21-heptaene-12,19-dione]",21.8,< 5.30,,
,"O=C1Nc2cn(C3CCOCC3)nc2C(=O)NCCCCCCn2cc(cn2)-c2cccc1n2 [Compound 12, 16-(oxan-4-yl)-4,5,12,15,16,19,25-heptaazatetracyclo[19.3.1.1^2,^5.0^1^4,^1^8]hexacosa-1(24),2(26),3,14,17,21 (25),22-heptaene-13,20-dione]",,> 7.00,6.00 to 7.00,
> 7.00,"CN1CCNC(=O)c2nn(C)cc2NC(=O)c2cccc(n2)-c2cnn(c2)CCOC1=O [Compound 5, 10,17-dimethyl-8-oxa-4,5,10,13,16,17,20,26-octaazatetracyclo[20.3.1.1^2,^5.0^1^5,^1^9]heptacosa-1(25),2(27),3,15,18,22(26),23-heptaene-9,14,21-trione]",,> 7.00,,
,"O=C1Nc2cn(C3CCN(CCO)CC3)nc2C(=O)NCCCCCCn2cc(cn2)-c2cccc1n2 [Compound 22, 16-[1-(2-hydroxyethyl)piperidin-4-yl]-4,5,12,15,16,19,25-heptaazatetracyclo[19.3.1.1^2,^5.0^1^4,^1^8]hexacosa-1 (24),2(26),3,14,17,21(25),22-heptaene-13,20-dione]",,> 7.00,6.00 to 7.00,
,"O=C1Nc2cn(C3CCOCC3)nc2C(=O)NCC[S+]([O-])CCCn2cc(cn2)-c2cccc1n2 (stereo not shown) [Compound 14, 16-(oxan-4-yl)-9λ^4-thia-4,5,12,15,16,19,25-heptaazatetracyclo[19.3.1.1^2,^5.0^1^4,^1^8]hexacosa-1(24),2(26),3,14,17,21(25),22-heptaene-9,13,20-trione]",,> 7.00,6.00 to 7.00,
,"Cn1cc2c(n1)C(=O)NC/C=C\CCCn1cc(cn1)-c1cccc(n1)C(=O)N2 [Compound 30, (9Z)-16-methyl-4,5,12,15,16,19,25-heptaazatetracyclo[19.3.1.1^2,^5.0^1^4,^1^8]hexacosa-1(24),2(26),3,9,14,17,21(25),22-octaene-13,20-dione]",,> 7.00,6.00 to 7.00,
,"O=C1Nc2cn(C3CCN(C(=O)NC4CC4)CC3)nc2C(=O)NCCCCCCn2cc(cn2)-c2cccc1n2 [Compound 19, N-cyclopropyl-4-{13,20-dioxo-4,5,12,15,16,19,25-heptaazatetracyclo[19.3.1.1^2,^5.0^1^4,^1^8]hexacosa-1(24),2(26),3,14,17,21(25),22-heptaen-16-yl}piperidine-1-carboxamide]",,> 7.00,6.00 to 7.00,
,"Cn1cc2c(n1)C(=O)NCC1CCN(CCn3cc(cn3)-c3cccc(n3)C(=O)N2)C1 (stereo not shown) [Compound 9, 17-methyl-4,5,8,13,16,17,20,26-octaazapentacyclo[20.3.1.1^2,^5.1^8,^11.0^1^5,^1^9]octacosa-1(25),2(28),3,15,18,22(26),23-heptaene-14,21-dione]",,> 7.00,5.30 to 6.00,
,"O=C1Nc2cn(C3CCOCC3)nc2C(=O)NCCS(=O)(=O)CCCn2cc(cn2)-c2cccc1n2 [Compound 15, 16-(oxan-4-yl)-9λ^6-thia-4,5,12,15,16,19,25-heptaazatetracyclo[19.3.1.1^2,^5.0^1^4,^1^8]hexacosa-1(24),2(26),3,14,17,21(25),22-heptaene-9,9,13,20-tetrone]",,> 7.00,6.00 to 7.00,
,"Cn1cc2c(n1)C(=O)NC1CCN(CC1O)C(=O)OCCn1cc(cn1)-c1cccc(n1)C(=O)N2 (stereo not shown) [Compound 21, 26-hydroxy-6-methyl-22-oxa-2,5,6,9,18,19,24,30-octaazapentacyclo[22.2.2.1^11,^1^5.1^1^6,^1^9.0^4,^8]triaconta-4,7,11(30),12,14,16(29),17-heptaene-3,10,23-trione]",,6.00 to 7.00,5.30 to 6.00,
,Cn1cc(NC(=O)c2cccc(-c3cnn(CCCl)c3)n2)c(C(=O)NC2CCNC[C@H]2O)n1 (stereo partly shown),,,,23.6
,"CN1CCNC(=O)c2nn(C)cc2NC(=O)c2cccc(n2)-c2cnn(c2)CC1 [Compound 10, 8,15-dimethyl-4,5,8,11,14,15,18,24-octaazatetracyclo[18.3.1.1^2,^5.0^13,^1^7]pentacosa-1(23),2(25),3,13,16,20(24),21-heptaene-12,19-dione]",,6.00 to 7.00,5.30 to 6.00,
< 5.30,"Cn1cc2c(n1)C(=O)NCC1CN(CCO1)C(=O)OCCn1cc(cn1)-c1cccc(n1)C(=O)N2 (stereo not shown) [Compound 8, 20-methyl-8,13-dioxa-4,5,10,16,19,20,23,29-octaazapentacyclo[23.3.1.1^2,^5.1^1^0,^1^4.0^1^8,^22]hentriaconta-1(28),2(31),3,18,21,25(29),26-heptaene-9,17,24-trione]",,6.00 to 7.00,,
,"Cn1cc2c(n1)C(=O)NCC(O)C(O)CCCn1cc(cn1)-c1cccc(n1)C(=O)N2 (stereo not shown) [Compound 31, 9,10-dihydroxy-16-methyl-4,5,12,15,16,19,25-heptaazatetracyclo[19.3.1.1^2,^5.0^1^4,^1^8]hexacosa-1(24),2(26),3,14,17,21(25),22-heptaene-13,20-dione]",,> 7.00,6.00 to 7.00,
,"Cn1cc2c(n1)C(=O)NCC/C=C\CCn1cc(cn1)-c1cccc(n1)C(=O)N2 [Compound 27, (8Z)-16-methyl-4,5,12,15,16,19,25-heptaazatetracyclo[19.3.1.1^2,^5.0^1^4,^1^8]hexacosa-1(24),2(26),3,8,14,17,21(25),22-octaene-13,20-dione]",,> 7.00,6.00 to 7.00,
,"Cn1cc2c(n1)C(=O)NCCCCCCn1cc(cn1)-c1cccc(c1)C(=O)N2 [Compound 1, 16-methyl-4,5,12,15,16,19-hexaazatetracyclo[19.3.1.1^2,^5.0^1^4,^1^8]hexacosa-1(24),2(26),3,14,17,21(25),22-heptaene-13,20-dione]",,> 7.00,6.00 to 7.00,

Structure (SMILES),pIC50 (IRAK1; [1]),"ring closure, yield after HPLC (from NCCOCCn1cc(-c2cccc(C(=O)Nc3cn(C4CCOCC4)nc3C(=O)[O-])c2)cn1, amide bond, 17-membered ring, BOP/DIEA, DMF, 20.7 mM) [%]",pIC50 (IRAK4),pIC50 (IRAK1),"ring closure, yield after HPLC (the molecule shown is the open-chain precursor, multicomponent bond, 20-membered ring, Cs2CO3/KI, microwave, DMSO, 22.0 mM, 110.0 °C) [%]"
"Cn1cc2c(n1)C(=O)NCCC/C=C/Cn1cc(cn1)-c1cccc(n1)C(=O)N2 [Compound 25, (7E)-16-methyl-4,5,12,15,16,19,25-heptaazatetracyclo[19.3.1.1^2,^5.0^1^4,^1^8]hexacosa-1(24),2(26),3,7,14,17,21(25),22-octaene-13,20-dione]",> 7.00,,> 7.00,,
